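Cells were grown in 96-well plates and exposed to each compound for 48 hours at five concentrations; endpoints were interpolated linearly between bracketing concentrations, or set to the highest concentration if not reached. TGI: total growth inhibition.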

Some test systems named below: SK-MEL-28 melanoma; SF-539 CNS; U251 CNS; MCF7 breast; OVCAR-3 ovarian; IGROV1 ovarian; OVCAR-5 ovarian; UO-31 renal; M19-MEL melanoma; CAKI-1 renal; NCI-H522 lung; CCRF-CEM leukemia; OVCAR-8 ovarian; MALME-3M melanoma; MOLT-4 leukemia; MDA-MB-231 breast; 786-0 renal; PC-3 prostate; HS 578T breast; SR leukemia.
Common to all, as to assay: inhibition of tumour cell growth, NCI panel, 48 h

As to `CCCSCC(P(=O)(O)O)P(=O)(O)O`, the TGI is more than 100 µM in the experiment on SK-MEL-28 melanoma; more than 100 µM in the experiment with SF-539 CNS; more than 100 µM in the experiment on U251 CNS; more than 100 µM in the experiment on MCF7 breast; more than 86.9 µM in the experiment with OVCAR-3 ovarian; more than 100 µM in the experiment with IGROV1 ovarian. Besides, the TGI in the experiment on OVCAR-5 ovarian, with UO-31 renal, in the experiment with M19-MEL melanoma, in the experiment with CAKI-1 renal, with NCI-H522 lung and with CCRF-CEM leukemia was more than 100 µM in each case. For the same compound, the TGI in the experiment on OVCAR-8 ovarian, in the experiment with MALME-3M melanoma and in the experiment with MOLT-4 leukemia was more than 100 µM each time.

On to `Cc1cn(C2CC(O)C(CO)O2)c(=O)[nH]c1=O` (centres undefined), for which the TGI was more than 5000 µM in the experiment with MDA-MB-231 breast; more than 5000 µM in the experiment on 786-0 renal; more than 5000 µM in the experiment with SK-MEL-28 melanoma; more than 5000 µM in the experiment on SF-539 CNS; more than 5000 µM in the experiment with U251 CNS; more than 4300 µM with MCF7 breast. Moreover, the TGI is more than 2650 µM in the experiment with OVCAR-3 ovarian; more than 5000 µM with IGROV1 ovarian; more than 5000 µM in the experiment on PC-3 prostate; more than 5000 µM with OVCAR-5 ovarian; more than 5000 µM with UO-31 renal; more than 5000 µM with M19-MEL melanoma. The TGI in the experiment with CAKI-1 renal is 4450 µM; in the experiment on NCI-H522 lung, more than 4240 µM; in the experiment with HS 578T breast, more than 5000 µM; in the experiment with SR leukemia, more than 5000 µM; with CCRF-CEM leukemia, 2390 µM; in the experiment on OVCAR-8 ovarian, 4960 µM. In addition, the TGI in the experiment with MALME-3M melanoma is more than 4900 µM; in the experiment on MOLT-4 leukemia it was 4090 µM.

Take `CC1=NS(=O)(=O)c2ccccc2N1`: the TGI in the experiment with 786-0 renal, in the experiment with SK-MEL-28 melanoma, with SF-539 CNS, with U251 CNS, in the experiment with OVCAR-3 ovarian and in the experiment with IGROV1 ovarian was more than 100 µM each time. The TGI in the experiment on OVCAR-5 ovarian, with UO-31 renal, with M19-MEL melanoma, in the experiment on CAKI-1 renal, in the experiment on NCI-H522 lung and in the experiment with SR leukemia was more than 100 µM throughout. Besides, the TGI in the experiment with CCRF-CEM leukemia, in the experiment with OVCAR-8 ovarian, in the experiment with MALME-3M melanoma and in the experiment with MOLT-4 leukemia was more than 100 µM in each case.

In the case of `COC(=O)C1CCC(=O)N1C(c1ccc(OC)cc1)c1ccc2c(c1)OCO2` (centres undefined), the TGI in the experiment on MDA-MB-231 breast is more than 100 µM; with 786-0 renal it was more than 100 µM; in the experiment with SK-MEL-28 melanoma, more than 100 µM; in the experiment on SF-539 CNS it was 98.6 µM; in the experiment on U251 CNS it was more than 100 µM; with MCF7 breast it was more than 100 µM. For the same compound, the TGI in the experiment on OVCAR-3 ovarian, in the experiment on IGROV1 ovarian, in the experiment on PC-3 prostate, in the experiment on OVCAR-5 ovarian, in the experiment on UO-31 renal and with CAKI-1 renal was more than 100 µM in each case. Moreover, the TGI with NCI-H522 lung, with HS 578T breast, in the experiment with SR leukemia, with CCRF-CEM leukemia, in the experiment on OVCAR-8 ovarian and in the experiment with MALME-3M melanoma was more than 100 µM in each case. The TGI in the experiment on MOLT-4 leukemia was more than 100 µM.

For `CS(=O)c1ncc2c(n1)-c1ccccc1OC2` (centres undefined), the TGI with MDA-MB-231 breast, in the experiment with 786-0 renal, in the experiment on SK-MEL-28 melanoma, with SF-539 CNS, with U251 CNS and in the experiment with MCF7 breast was more than 100 µM throughout. Besides, the TGI with OVCAR-3 ovarian, with IGROV1 ovarian, in the experiment on PC-3 prostate, with OVCAR-5 ovarian, with UO-31 renal and with CAKI-1 renal was more than 100 µM in each case. Also, the TGI in the experiment on NCI-H522 lung, in the experiment on HS 578T breast, in the experiment on SR leukemia, with CCRF-CEM leukemia, in the experiment with OVCAR-8 ovarian and in the experiment with MALME-3M melanoma was more than 100 µM in each case. Moreover, in the experiment with MOLT-4 leukemia, the TGI is more than 100 µM.

The values above are taken from PubChem BioAssay (NCI).
